Data from article PMC12454639, “Direct disassembly of α-syn preformed fibrils into α-syn monomers by an all-D-peptide” (NPJ Parkinson's Disease, 2025).
Square brackets hold non-standard residues; d marks the D form. Peptide text beside a SMILES is read from it.

Tests used:
[1] = biological target: T1, α-syn monomer (full-length) (Homo sapiens, UniProt P37840); assay: SPR single-cycle kinetics, peptide immobilized, α-syn as analyte; assay type: binding; conditions: for deviation from 1:1 model (additional binding mode): suggested from deviation of fits for later injections
T1 construct: made in house; host or cells: E. coli BL21(DE3), co-expressed with pNatB (N-terminal acetylation enzyme from Schizosaccharomyces pombe)
Procedure: The experiment was performed as an individual measurement. […] The non-referenced signal of the active and referenced surface is shown in Supplementary Fig. 7. […] Full-length α-syn was injected for 100 s at 30 µl/min in PBS 7.4 in a serial dilution ranging from 15 to 250 nM, followed by a dissociation time of 60 min. Y-axis scaling was adjusted to (A).
Measurements were performed using an 8K Biacore device (Cytiva, USA). Interactions were measured using single-cycle kinetics experiments. For all assays, the peptide compounds were immobilized as ligand on the sensor surface and recombinant α-syn was injected as analyte in the flow. […] Surface quenching was performed using 1 M ethanolamine, pH 8.3. The kinetic experiments were performed using a flow rate of 30 µl/min in PBS pH 7.4 if not otherwise stated. The surface was regenerated in between cycles using 30 s injections of 2 M Gua-HCl at 30 µl/min. Data evaluation was performed using Biacore Insight Evaluation Software v3.0 (Cytiva, USA).

[2] = test system: α-syn (1–108); assay: De novo ThT aggregation of 1-108 truncated α-syn; assay type: biochemical; conditions: 25 µM 1-108 α-syn, equimolar peptide
Procedure: ThT assay was used for different purposes. […] Lag-time and t½ were calculated as described previously. […] Measurements were taken every 5 min (n = 3).
Aggregation curves were fitted with a symmetric Boltzmann fit and the steady state signal was normalized to 1.

[3] = test system: 15N-labeled full-length acetyl-α-syn; assay: 1H-15N HSQC NMR; assay type: binding
Procedure: Samples were prepared at final concentrations of 25 µM ^15N-labeled full-length acetyl-α-syn in the absence (reference) and presence of an equimolar amount of SVD-1a (not isotopically labeled, thus NMR-invisible) in PBS buffer, pH 7.4, with an addition of 5% D2O for internal reference. 2D 1H-15N HSQC spectra were recorded back-to-back, on a Bruker AVANCE NEO spectrometer (Bruker, USA) operating at 1200 MHz proton Larmor frequency. The experimental temperature was 10 °C. Spectral dimensions were 16.02 ppm (^1H) x 30 ppm (^15N), with 2048 points in the ^1H dimension and 256 increments in the ^15N dimension, resulting in an acquisition time of 53 ms for the ^1H dimension and 35 ms for the ^15N dimension. For each increment, 32 scans were recorded, with a recovery delay of 1 s between scans, resulting in an overall experimental time of […] per spectrum.
NMR data sets were processed using the Bruker TopSpin software (version 4.1.1) and visualized using CcpNmr Analysis (v2.4.2)[59]. For the assessment of chemical shift changes of α-syn resonances in the presence of SVD-1a relative to the reference spectrum (without SVD-1a), peak positions were extracted using the CcpNmr Analysis software. From the residue-specific chemical shift changes in the ^1H and ^15N dimensions, an absolute chemical shift change, Δδ, was calculated using the formula Δδ = 0.5δH2+0.14δN2 [60]. […]

[4] = test system: α-synuclein monomer seeded with small α-syn PFF; assay: CD spectroscopy of the seeded aggregation assay; assay type: biochemical; conditions: 30 µM SVD-1a, 500 nM PFF, 15 µM α-syn monomer, PBS pH 7.4, 37 °C, 24 h
Procedure: Far-UV circular dichroism (CD) data were collected using a Jasco J-1100 spectropolarimeter (Jasco, GE). 350 µl samples were pooled and loaded into a high precision quartz cuvette with a path length of 1 mm (Hellma group, GE). A scan speed of 20 nm/min with five accumulations per sample was performed using far UV wavelengths from 260 to 190 nm. Baseline was corrected by subtracting measurements of the reference sample only.
Supplementary Fig. 13: Analysis of the seeded aggregation assay in the presence and absence of SVD-1a using circular dichroism (CD) spectroscopy. Small α-syn PFF (500 nM) were incubated in PBS (pH 7.4) at 37 °C under quiescent conditions for 24 hours, either alone or in the presence of 15 µM α-synuclein monomer and/or 30 µM SVD-1a. For each condition and time point, three replicates (each 120 µl) were pooled and analyzed by CD spectroscopy at 0, 2, 8, and 24 hours. Far-UV ellipticity was measured in a quartz cuvette (path length = 10 mm) using a J-1100 CD spectrometer (Jasco, GE). […] (D) Co-incubation of 500 nM α-synuclein PFFs with 15 µM α-synuclein monomer induced a structural transition towards β-sheet formation, as reflected in the CD spectrum (referenced to spectrum in (A)).

[5] = test system: α-synA53T–YFP cells (HEK293T)

Structure (SMILES): CC[C@@H](C)[C@@H](NC(=O)[C@@H](Cc1c[nH]cn1)NC(=O)[C@@H](CCC(=O)O)NC(=O)[C@@H](CCC(N)=O)NC(=O)[C@@H](Cc1c[nH]c2ccccc12)NC(=O)[C@@H](Cc1ccc(O)cc1)NC(=O)[C@H](NC(=O)[C@@H](CCC(=O)O)NC(=O)[C@@H](Cc1c[nH]cn1)NC(=O)[C@H](NC(=O)[C@H]1CCCN1C(=O)[C@@H](CCSC)NC(=O)[C@H](N)CCCCN)[C@H](C)O)[C@H](C)O)C(=O)N[C@H](Cc1c[nH]c2ccccc12)C(=O)N[C@H](Cc1c[nH]cn1)C(=O)N[C@H](C)C(N)=O [SVD-1] (H-[dK][dM][dP][dT][dH][dE][dT][dY][dW][dQ][dE][dH][dI][dW][dH][dA]-NH2)
- deviation from 1:1 model (additional binding mode) [1]: additional low-affinity binding mode in the higher nM range
- inhibition of α-syn (1–108) aggregation [2]: delay of 1- 108 truncated α-syn aggregation

Structure (SMILES): CC[C@@H](C)[C@@H](NC(=O)[C@@H](Cc1c[nH]cn1)NC(=O)[C@@H](CCC(=O)O)NC(=O)[C@@H](CCC(N)=O)NC(=O)[C@@H](Cc1c[nH]c2ccccc12)NC(=O)[C@@H](Cc1ccc(O)cc1)NC(=O)[C@H](NC(=O)[C@@H](CCC(=O)O)NC(=O)[C@@H](Cc1c[nH]cn1)NC(=O)[C@H](NC(=O)[C@H]1CCCN1C(=O)[C@@H](CC(C)C)NC(=O)[C@H](N)CCCNC(=N)N)[C@H](C)O)[C@H](C)O)C(=O)N[C@H](Cc1c[nH]c2ccccc12)C(=O)N[C@H](Cc1c[nH]cn1)C(=O)N[C@H](C)C(=O)N[C@H](CCCNC(=N)N)C(=O)N[C@H](CCCNC(=N)N)C(=O)N[C@H](CCCNC(=N)N)C(=O)N[C@H](CCCNC(=N)N)C(=O)N[C@H](CCCNC(=N)N)C(N)=O [SVD-1a] (H-[dR][dL][dP][dT][dH][dE][dT][dY][dW][dQ][dE][dH][dI][dW][dH][dA][dR][dR][dR][dR][dR]-NH2)
- Kd [1]: 0.1 nM
- koff ([1]; 1:1 Langmuir-based model, immobilized peptide, α-syn analyte, PBS pH 7.4, dissociation 60 or 30 min, individual measurement): 3.13e-05 s⁻¹
- kon ([1]; 1:1 Langmuir-based model, immobilized peptide, α-syn analyte, PBS pH 7.4, individual measurement): 313000 M⁻¹ s⁻¹
- sequence specificity of binding ([1]; comparison of SVD-1a and SVD-1a_scr.+5r): sequence-specific
- deviation from 1:1 model (additional binding mode) [1]: additional low-affinity binding mode in the higher nM range
- NMR chemical shift changes of α-syn ([3]; 25 µM 15N-α-syn + 25 µM SVD-1a, PBS pH 7.4, 10 °C, 1200 MHz): the chemical shift changes are very small, with most residues showing significant chemical shift changes located in the C-terminal region
- precipitation of α-syn in NMR sample ([3]; 25 µM α-syn with 25 µM SVD-1a, 4.8 h at 10 °C): did not yield any signs of signal loss due to precipitation
- α-syn secondary structure under seeded conditions [4]: stabilized the α-synuclein monomer in its random coil conformation throughout the incubation period
- inhibition of α-syn (1–108) aggregation [2]: delay of 1- 108 truncated α-syn aggregation
- cell viability, PFF-seeded α-synA53T–YFP cells [5]: did not induce significantly different luminescence in comparison to unseeded cells or seeded cells without peptide treatment
